# Experimental data published in article PMC3311629, “Rational Design and Characterization of D-Phe-Pro-D-Arg-Derived Direct Thrombin Inhibitors” (PLoS ONE, 2012).
# Square brackets hold non-standard residues; d marks the D form. Peptide text beside a SMILES is read from it. 2Thi = N[C@@H](Cc1cccs1)C(=O)O
# How the values were obtained:
# [1] = target: bovine α-thrombin (Bos taurus, UniProt P00735); assay: Inhibition of thrombin's hydrolytic activity towards chromogenic substrate S2238; type: biochemical; conditions: bovine α-thrombin 5 nM, 25°C, pH 7.46
# Method: In a first instance, the inhibitory constants (Ki) for all peptides were determined using pseudo-first order kinetics. […] Substrate hydrolysis at 25°C, in sodium phosphate buffer pH 7.46, with 0.2 M NaCl and 50 µg/ml bovine serum albumin was monitored in real-time at 405 nm using a thermostated spectrophotometer (Cary), assuring that the hydrolysis of the chromogenic substrate was complete. Each kinetic trace was fitted to a first-order reaction mathematical model (At = A0*e^−kt or At = A0+a*(1−e^−kt)). The Ki was determined from the equation Ki = [I]/(kobs uninhibited/kobs inhibited−1), where kobs is the pseudo-first order rate constant and [I] is the molar inhibitor concentration. For the inhibitors that were structurally characterized, the kinetic parameters of S2238 hydrolysis and the type of inhibition were determined using 5 nM bovine α-thrombin (Sigma) and varying concentrations of both substrate (0–200 µM) and peptide inhibitors (0–50 µM). The data was fitted to a competitive enzyme inhibition model using Prism5 (GraphPad Software) and the built-in nonlinear regression global analysis package to determine the values for Ki, KM and Vmax. The goodness of fit was assessed using the built-in statistical analysis package, which enabled the calculation of R^2 values.
# [2] = target: T1, factor Xa (Homo sapiens, UniProt P00742); assay: Inhibitory activity towards factor Xa (chromogenic substrate S2222); type: biochemical; conditions: for Ki: factor Xa 15 nM, S2222 0.18 mM, Ki = IC50/(1+S/KM), competitive mechanism assumed; for selectivity for thrombin versus factor Xa: ratio of Ki values, thrombin vs factor Xa
# T1 construct: Factor Xa (15 nM; American Diagnostica); purchased American Diagnostica
# Method: (§1) Factor Xa (15 nM; American Diagnostica) or trypsin (25 nM; Sigma) was incubated for 15 min at room temperature with 20–1600 µM of fPrI, fPrC or fPrt in 50 mM Tris-HCl pH 8.0 and 150 mM NaCl (factor Xa) or 50 mM Tris-HCl pH 8.0, 150 mM NaCl and 160 mM CaCl2 prior to substrate addition. The chromogenic substrates were S2222 (Nα-Benzoyl-L-isoleucyl-L-glutamyl-glycyl-L-arginine-4-nitroanilide hydrochloride; American Diagnostica) for factor Xa or BAPNA (Nα-Benzoyl-L-arginine-4-nitroanilide hydrochloride; Sigma) for trypsin. Substrate hydrolysis was monitored at 405 (S2222) or 410 nm (BAPNA) using a thermostated spectrophotometer (Cary). IC50 values were determined using the built in equation provided by Prism5 (GraphPad Software).
# [3] = target: T2, trypsin (Bos taurus, UniProt P00760); assay: Inhibitory activity towards trypsin (chromogenic substrate BAPNA); type: biochemical; conditions: for selectivity for thrombin versus trypsin: ratio of Ki values, thrombin vs trypsin; for Ki: trypsin 25 nM, BAPNA 1.84 mM, Ki = IC50/(1+S/KM), competitive mechanism assumed
# T2 sequence (P00760 24-246): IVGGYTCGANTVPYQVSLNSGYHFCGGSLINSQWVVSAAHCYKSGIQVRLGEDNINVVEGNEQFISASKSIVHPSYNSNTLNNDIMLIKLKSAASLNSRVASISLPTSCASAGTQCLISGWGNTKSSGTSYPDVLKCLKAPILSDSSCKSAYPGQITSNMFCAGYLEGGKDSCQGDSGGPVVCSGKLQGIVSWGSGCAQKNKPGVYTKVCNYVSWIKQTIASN
# Method: as §1
# [4] = target: α-thrombin (Bos taurus, UniProt P00735); assay: Inhibitor resistance to proteolysis by thrombin (ESI mass spectrometry); type: in vitro ADME; conditions: 20 µM peptide with 20 µM α-thrombin, 24 h, room temperature, pH 7.46, mass spectrometry
# Method: After 24 h incubation, aliquots were removed and the reaction was quenched with 0.1% TFA. The samples were analyzed on an ESI spectrometer run in the positive mode. As the expected molecular mass of the tripeptide resulting from the hydrolysis of the D-Arg-P1′ peptide bond is 418.5 Da, spectra were acquired in the 400–1000 Da window.
# T1 sequence (P00742 235-488 limits assumed): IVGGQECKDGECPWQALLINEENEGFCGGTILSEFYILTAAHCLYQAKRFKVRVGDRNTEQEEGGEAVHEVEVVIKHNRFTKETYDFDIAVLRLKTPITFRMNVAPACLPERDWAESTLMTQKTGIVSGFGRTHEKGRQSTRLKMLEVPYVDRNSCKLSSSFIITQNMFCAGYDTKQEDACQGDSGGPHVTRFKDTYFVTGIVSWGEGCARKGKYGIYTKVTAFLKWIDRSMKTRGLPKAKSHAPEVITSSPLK
# T1 sequence (P00742 41-179 partner limits assumed): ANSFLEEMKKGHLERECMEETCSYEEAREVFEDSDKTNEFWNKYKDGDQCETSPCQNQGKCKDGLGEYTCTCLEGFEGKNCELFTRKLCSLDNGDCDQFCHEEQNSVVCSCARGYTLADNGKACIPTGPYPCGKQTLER
Structure (SMILES),Ki [1] [µM],other results
"N=C(N)NCCC[C@@H](NC(=O)[C@@H]1CCCN1C(=O)[C@H](N)Cc1ccccc1)C(=O)N[C@@H](Cc1c[nH]cn1)C(N)=O [Peptide 7, D-Phe-Pro-D-Arg-His] (H-[dF]P[dR]H-NH2)",122 ± 9.5,–
"C[C@@H](NC(=O)[C@@H](CCCNC(=N)N)NC(=O)[C@@H]1CCCN1C(=O)[C@H](N)Cc1ccccc1)C(N)=O [Peptide 2, D-Phe-Pro-D-Arg-D-Ala] (H-[dF]P[dR][dA]-NH2)",2.06 ± 0.04,–
"N=C(N)NCCC[C@@H](NC(=O)[C@@H]1CCCN1C(=O)[C@H](N)Cc1ccccc1)C(=O)NCC(N)=O [Peptide 3, D-Phe-Pro-D-Arg-Gly] (H-[dF]P[dR]G-NH2)",5.9 ± 0.2,–
"N=C(N)NCCC[C@@H](NC(=O)[C@@H]1CCCN1C(=O)[C@H](N)Cc1ccccc1)C(=O)N[C@H](CS)C(N)=O [Peptide 20, D-Phe-Pro-D-Arg-D-Cys] (H-[dF]P[dR][dC]-NH2)",2.4 ± 0.05,–
"CC(C)C[C@@H](NC(=O)[C@@H](CCCNC(=N)N)NC(=O)[C@@H]1CCCN1C(=O)[C@H](N)Cc1ccccc1)C(N)=O [Peptide 26, D-Phe-Pro-D-Arg-D-Leu] (H-[dF]P[dR][dL]-NH2)",4.13 ± 0.24,–
"N=C(N)NCCC[C@@H](NC(=O)[C@@H]1CCCN1C(=O)[C@H](N)Cc1ccccc1)C(=O)N[C@H](CO)C(N)=O [Peptide 18, D-Phe-Pro-D-Arg-D-Ser] (H-[dF]P[dR][dS]-NH2)",12.3 ± 0.08,–
"N=C(N)NCCC[C@H](NC(=O)[C@@H](CCCNC(=N)N)NC(=O)[C@@H]1CCCN1C(=O)[C@H](N)Cc1ccccc1)C(N)=O [Peptide 4, D-Phe-Pro-D-Arg-Arg] (H-[dF]P[dR]R-NH2)",91.1 ± 8.2,–
"C[C@H](NC(=O)[C@@H](CCCNC(=N)N)NC(=O)[C@@H]1CCCN1C(=O)[C@H](N)Cc1ccccc1)C(N)=O [Peptide 1, D-Phe-Pro-D-Arg-Ala] (H-[dF]P[dR]A-NH2; N-terminus assumed)",16.6 ± 0.8,–
"CC(C)[C@H](NC(=O)[C@@H](CCCNC(=N)N)NC(=O)[C@@H]1CCCN1C(=O)[C@H](N)Cc1ccccc1)C(N)=O [Peptide 13, D-Phe-Pro-D-Arg-Val] (H-[dF]P[dR]V-NH2)",56.3 ± 1.5,–
"N=C(N)NCCC[C@@H](NC(=O)[C@@H]1CCCN1C(=O)[C@H](N)Cc1ccccc1)C(=O)N[C@@H](CO)C(N)=O [Peptide 17, D-Phe-Pro-D-Arg-Ser] (H-[dF]P[dR]S-NH2)",17.1 ± 0.8,–
"N=C(N)NCCC[C@@H](NC(=O)[C@@H]1CCCN1C(=O)[C@H](N)Cc1ccccc1)C(=O)N[C@@H](CS)C(N)=O [Peptide 19, D-Phe-Pro-D-Arg-Cys] (H-[dF]P[dR]C-NH2)",16.5 ± 1.5,"Ki [2]: 41.4 ± 2.6 µM; selectivity for thrombin versus factor Xa [2]: 3 fold; selectivity for thrombin versus trypsin [3]: 20 fold; Ki [3]: 377.1 ± 3.6 µM; Stability against thrombin hydrolysis (cleavage product D-Phe-Pro-D-Arg, 418.5 Da) [4]: could not be identified"
"N=C(N)NCCC[C@@H](NC(=O)[C@@H]1CCCN1C(=O)[C@H](N)Cc1ccccc1)C(=O)N[C@@H](Cc1ccc(O)cc1)C(N)=O [Peptide 12, D-Phe-Pro-D-Arg-Tyr] (H-[dF]P[dR]Y-NH2)",50.5 ± 3.4,–
"N=C(N)NCCC[C@@H](NC(=O)[C@@H]1CCCN1C(=O)[C@H](N)Cc1ccccc1)C(=O)N[C@@H](Cc1cccs1)C(N)=O [Peptide 27, D-Phe-Pro-D-Arg-Thi] (H-[dF]P[dR][2Thi]-NH2)",8.16 ± 0.35,–
"N=C(N)NCCC[C@@H](NC(=O)[C@@H]1CCCN1C(=O)[C@H](N)Cc1ccccc1)C(=O)N[C@@H](Cc1ccccc1)C(N)=O [Peptide 8, D-Phe-Pro-D-Arg-Phe] (H-[dF]P[dR]F-NH2)",250 ± 20,–
"N=C(N)NCCC[C@@H](NC(=O)[C@@H]1CCCN1C(=O)[C@H](N)Cc1ccccc1)C(=O)N[C@@H](CCC(=O)O)C(N)=O [Peptide 6, D-Phe-Pro-D-Arg-Glu] (H-[dF]P[dR]E-NH2)",556 ± 89.6,–
"N=C(N)NCCC[C@@H](NC(=O)[C@@H]1CCCN1C(=O)[C@H](N)Cc1ccccc1)C(=O)N[C@@H](Cc1c[nH]c2ccccc12)C(N)=O [Peptide 11, D-Phe-Pro-D-Arg-Trp] (H-[dF]P[dR]W-NH2)",65.6 ± 7.2,–
"N=C(N)NCCC[C@@H](NC(=O)[C@@H]1CCCN1C(=O)[C@H](N)Cc1ccccc1)C(=O)N[C@@H](CCCCN)C(N)=O [Peptide 5, D-Phe-Pro-D-Arg-Lys] (H-[dF]P[dR]K-NH2)",66.6 ± 6.5,–
"CSCC[C@H](NC(=O)[C@@H](CCCNC(=N)N)NC(=O)[C@@H]1CCCN1C(=O)[C@H](N)Cc1ccccc1)C(N)=O [Peptide 28, D-Phe-Pro-D-Arg-Met] (H-[dF]P[dR]M-NH2)",37.2 ± 2.5,–
"CC[C@@H](C)[C@@H](NC(=O)[C@@H](CCCNC(=N)N)NC(=O)[C@@H]1CCCN1C(=O)[C@H](N)Cc1ccccc1)C(N)=O [Peptide 24, D-Phe-Pro-D-Arg-D-Ile] (H-[dF]P[dR][dI]-NH2)",7.44 ± 0.5,–
"C[C@@H](O)[C@H](NC(=O)[C@@H](CCCNC(=N)N)NC(=O)[C@@H]1CCCN1C(=O)[C@H](N)Cc1ccccc1)C(N)=O [Peptide 15, D-Phe-Pro-D-Arg-Thr] (H-[dF]P[dR]T-NH2)",12.5 ± 0.35,–
"N=C(N)NCCC[C@@H](NC(=O)[C@@H]1CCCN1C(=O)[C@H](N)Cc1ccccc1)C(=O)N1CCC[C@H]1C(N)=O [Peptide 9, D-Phe-Pro-D-Arg-Pro] (H-[dF]P[dR]P-NH2)",89.5 ± 5.5,–
"N=C(N)NCCC[C@@H](NC(=O)[C@@H]1CCCN1C(=O)[C@H](N)Cc1ccccc1)C(=O)N[C@H](CCC(N)=O)C(N)=O [Peptide 22, D-Phe-Pro-D-Arg-D-Gln] (H-[dF]P[dR][dQ]-NH2)",19.3 ± 0.6,–
"N=C(N)NCCC[C@@H](NC(=O)[C@@H]1CCCN1C(=O)[C@H](N)Cc1ccccc1)C(=O)N[C@@H](CCC(N)=O)C(N)=O [Peptide 21, D-Phe-Pro-D-Arg-Gln] (H-[dF]P[dR]Q-NH2)",43.1 ± 2.6,–
"CC[C@H](C)[C@H](NC(=O)[C@@H](CCCNC(=N)N)NC(=O)[C@@H]1CCCN1C(=O)[C@H](N)Cc1ccccc1)C(N)=O [Peptide 23, D-Phe-Pro-D-Arg-Ile] (H-[dF]P[dR]I-NH2)",7.7 ± 0.73,"Ki [2]: 7300 µM; selectivity for thrombin versus trypsin [3]: 12 fold; Ki [3]: 90.2 ± 2.8 µM; Stability against thrombin hydrolysis (cleavage product D-Phe-Pro-D-Arg, 418.5 Da) [4]: could not be identified"
"N=C(N)NCCC[C@@H](NC(=O)[C@@H]1CCCN1C(=O)[C@H](N)Cc1ccccc1)C(=O)N1CCC[C@@H]1C(N)=O [Peptide 10, D-Phe-Pro-D-Arg-D-Pro] (H-[dF]P[dR][dP]-NH2)",489 ± 113,–
"CC(C)C[C@H](NC(=O)[C@@H](CCCNC(=N)N)NC(=O)[C@@H]1CCCN1C(=O)[C@H](N)Cc1ccccc1)C(N)=O [Peptide 25, D-Phe-Pro-D-Arg-Leu] (H-[dF]P[dR]L-NH2)",20.6 ± 4.5,–
"C[C@H](O)[C@@H](NC(=O)[C@@H](CCCNC(=N)N)NC(=O)[C@@H]1CCCN1C(=O)[C@H](N)Cc1ccccc1)C(N)=O [Peptide 16, D-Phe-Pro-D-Arg-D-Thr] (H-[dF]P[dR][dT]-NH2)",0.92 ± 0.08,"Ki [2]: 103 ± 1.44 µM; selectivity for thrombin versus factor Xa [2]: 110 fold; selectivity for thrombin versus trypsin [3]: 420 fold; Ki [3]: 389 ± 5.5 µM; Stability against thrombin hydrolysis (cleavage product D-Phe-Pro-D-Arg, 418.5 Da) [4]: could not be identified"
"CC(C)[C@@H](NC(=O)[C@@H](CCCNC(=N)N)NC(=O)[C@@H]1CCCN1C(=O)[C@H](N)Cc1ccccc1)C(N)=O [Peptide 14, D-Phe-Pro-D-Arg-D-Val] (H-[dF]P[dR][dV]-NH2)",2.17 ± 0.6,–
